No end group written: not given here.
Columns and labels:
[1] = tested on: asymmetrical arginine methylation of NSC-34 cells; assay: Cellular asymmetric arginine methylation (800/700 fluorescence readout) in NSC-34 cells; format: cell-based, Mouse
Description: On Day 0, NSC-34 Cells were plated in 48 wells of a 96 well plate, and CHO cells were plated in the other 48 wells of the same 96-well plate. NSC-34 cells were plated in DMEM/High glucose media. CHO cells were plated in Ham's F-12K (Kaighn's) Medium. Both cell lines were incubated overnight to reach approximately 50% confluency.
On Day 1, 24 wells of the NSC-34 cells and 24 wells of the CHO cells were treated with the following concentrations of MS023: 1 μM, 3 μM, 6 μM, 10 μM, 30 μM, and 60 μM. The cells were then incubated overnight.
On Day 2, 18 wells of the untreated NSC-34 cells and 18 wells of the untreated CHO cells were treated with the same concentrations of MS023 as those on Day 1. This left 6 wells of each cell line that never received MS023. Once MS023 was added, the cells were incubated overnight.
On Day 3, all media in the 96-well plate was removed and the cells were fixed with 3.7% Paraformaldehyde (PFA). Cells were then washed and permeabilized with 1×PBS/0.1% Triton X-100.
After removing the PBS/Triton wash, Odyssey Blocking Buffer (LI-COR, 927-40100) was applied to all wells and the plate sat at room temperature with moderate shaking for 90 minutes. After 90 minutes, the blocking buffer was removed and the cells were treated with a 1:500 dilution of the Anti-Asymmetric Di-Methyl Arginine Motif primary antibody (Cell Signaling Technology, #13522). Incubation with the primary antibody continued overnight at 4 degrees Celsius with no shaking.
On Day 4, the primary antibody solution was removed from the plate, and the cells were washed with 1×PBS/0.1% Tween 20. After washing, cells were given a secondary antibody mixture containing a 1:1000 dilution of IRDye 800 CW Anti-Rabbit antibody (LI-COR, 926-32211) and a 1:500 dilution of Cell Tag 700 Stain (LI-COR, 926-41090). The secondary antibody mixture remained on cells for 60 minutes with gentle shaking and protected from light.
(§1) After 60 minutes, the secondary antibody mixture was removed and the cells were again washed with 1×PBS/0.1% Tween 20. All wash buffer was then removed, and the plate was gently patted dry to remove excess solution. The plate was then read on the LI-COR Odyssey Classic Imaging System which provides results based on fluorescence. In this experiment, fluorescence occurred as a result of cellular, asymmetric arginine methylation. MS023 was given to cells for either 24 or 48 hours, with expectation for it to reduce cellular, asymmetric arginine methylation. Cell number per well was accounted for using the Cell Tag 700 Stain, which fluorescently labels total protein levels in a cell. To this effect, fluorescence from asymmetrical arginine methylation per well (800) was divided by fluorescence from the total protein level per well (700) to produce an outcome of 800/700.
On Day 1, 24 wells of the NSC-34 cells and 24 wells of the CHO cells were treated with the following concentrations of MS049: 0.2 μM, 1 μM, 2 μM, 10 μM, 20 μM, and 100 μM. The cells were then incubated overnight.
On Day 2, 18 wells of the untreated NSC-34 cells and 18 wells of the untreated CHO cells were treated with the same concentrations of MS049 as those on Day 1. This left 6 wells of each cell line that never received MS049. Once MS049 was added, the cells were incubated overnight.
as §1, with “MS049” for “MS023”, “To this effect, fluorescence from asymmetrical arginine methylation per well (800) was divided by fluorescence from the total protein level per well (700) to produce an outcome of 800/700.” left out

[2] = target: T1, Recombinant PRMT1 protein (Homo sapiens, UniProt Q99873); assay: In-vitro arginine methylation assay with recombinant PRMT1 and SAM; format: biochemical; settings: 37 degrees Celsius, 2 hours, no methylation without PRMT1 or SAM
T1 construct: purchased Active Motif 31411
T1 sequence (Q99873 whole entry): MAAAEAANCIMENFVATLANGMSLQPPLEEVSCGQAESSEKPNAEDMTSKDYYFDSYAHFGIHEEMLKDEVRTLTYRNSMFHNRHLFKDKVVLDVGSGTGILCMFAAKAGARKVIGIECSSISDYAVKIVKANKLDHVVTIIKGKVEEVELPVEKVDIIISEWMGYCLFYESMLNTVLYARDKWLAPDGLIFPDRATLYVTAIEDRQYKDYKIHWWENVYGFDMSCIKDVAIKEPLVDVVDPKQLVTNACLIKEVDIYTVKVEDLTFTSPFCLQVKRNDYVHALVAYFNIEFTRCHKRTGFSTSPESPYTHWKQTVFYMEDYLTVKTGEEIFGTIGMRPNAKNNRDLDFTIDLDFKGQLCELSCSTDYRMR
Description: To assess interaction between PRMT1 and GR15, (SEQ ID NO: 1) an in-vitro methylation assay system was developed. This system consists of a mixture of recombinant PRMT1 enzyme, S-(5′-Adenosyl)-L-methionine iodide, (SAM) as a methyl donor, and potential substrate of PRMT1 activity. For this experiment, 11 tubes were prepared, each containing various amount of the following components; • Recombinant PRMT1 protein (Active Motif, Cat. 31411) • S-(5′-Adenosyl)-L-methionine iodide, (SAM) (Sigma-Aldrich Cat. A4377) • GR15(SEQ ID NO: 1) • PR15(SEQ ID NO: 2) • SOD1 from human erythrocytes (S9636-1KU)
These constituents were mixed in a 0.5 ml flat-capped tubes (Thermo Fisher Scientific, AB0350) according to Table 4 (all values are in microliters (μl)).
Once all tubes were prepared, each tube was gently tapped to ensure mixture, and the tubes were placed in an incubator at 37 degrees Celsius for 2 hours. After 2 hours, the reaction mixture was stopped with the addition of 10 μl of NuPage LDS Sample Buffer (Thermo Fisher Scientific, NP0007). The tubes were gently tapped to ensure mixture, and then boiled for 5 minutes in a 95 degrees Celsius water bath. […]
The gel was then transferred using the iBlot apparatus and an iBlot 2 Nitrocellulose Mini Stack (Thermo Fisher Scientific, IB23002). […] Following wash steps, the membrane was read on the LI-COR Odyssey Classic Imaging System.

## CC(C)Oc1ccc(-c2c[nH]cc2CN(C)CCN)cc1 [MS023]
[1]; 24 hour treatment, 1 μM, vs untreated cells
  decrease of asymmetrical arginine methylation: approximately 13%
[1]; 24 hour treatment, 60 μM
  decrease of asymmetrical arginine methylation: ~45%
[1]; 48 hour treatment, 1 μM
  decrease of asymmetrical arginine methylation: ~33%
[1]; 48 hour treatment, 60 μM
  decrease of asymmetrical arginine methylation: ~75%

## GRGRGRGRGRGRGRGRGRGRGRGRGRGRGR [GR15]
[2]
  asymmetric methylation of the peptide as substrate (anti-H4R3me2a detection): is asymmetrically methylated by PRMT1

From patent US12318365B2, “Inhibition of dipeptide repeat proteins” (ALS Therapy Development Institute, priority 2019, dated 2025)
